Reference: EP0367747A2, “Dideoxy-L-arabinitol derivatives as antiviral compounds” (G.D. Searle & Co., priority 1988, dated 1990)
Marks after values point to notes of the source that are not given here.

Assays:
[1] = tested on: visna virus; assay: Inhibition of visna virus in vitro (plaque reduction assay / 96 well plate assay) in SCP cells; format: cell-based; parameters: key to Antiviral Activity: A = active compound; I = inactive; settings: for Antiviral Activity: Table 4; for EC50: inhibition of visna virus, read-out: EC₅₀
Procedure: Various compounds as prepared above were tested for inhibition of visna virus in vitro in a plaque reduction assay as follows:
Sheep choroid plexus(SCP) cells were obtained from American Type Culture Collection (ATCC) catalogue number CRL 1700 and were routinely passaged in vitro in Dulbecco's Modified Eagles (DME) medium supplemented with 20% fetal bovine serum (FBS). SCP cells were passaged once per week at a 1:2 or 1:3 split ratio. Visna was titrated by plaque assay in six-well plates. Virus pools were stored at -70°C.
(§1) SCP cells were cultured in 6-well plates to confluence. Wells were washed two times with serum free Minimal Essential Medium (MEM) to remove FBS. 0.2ml of virus was added per well in MEM supplemented with 4mM glutamine and gentamycin. After 1 hour adsorption, the virus was aspirated from each well. The appropriate concentration of each compound in 5 ml of Medium 199 (M-199) supplemented with 2% lamb serum, 4mM glutamine, 0.5% agarose and gentamycin was added to each well. Cultures were incubated at 37°C in a humidified 5% CO₂ incubator for 3-4 weeks. To terminate the test: cultures were fixed in 10% formalin, the agar removed, the monolayers stained with 1% crystal violet and plaques counted. Each compound concentration was run in triplicate. […] 0 is no toxicity observed while 4 is total lysing of the cell monolayer.
The 96 well plate assay was performed similarly to the plaque assay above with modifications. SCP cells were seeded at 1 x 10⁴ cells per well in 0.1 ml DME medium. When confluent, the wells were washed with serum free MEM and 25ul of virus added in M-199 supplemented with 2% lamb serum. After 1 hour, 75uL of medium containing test compound was added to each well containing virus. After 2-3 weeks incubation the cytopathic effect of the virus was determined by staining with a vital stain. Cell viability was measured by determining stain density using a 96 well plate reader.

[2] = tested on: Sheep choroid plexus(SCP) cells; assay: Toxicity of compounds in control wells without virus, graded morphologically 0 to 4; format: cell-based; parameters: key: 0 = no toxicity; 4 = total cell lyses; settings: 0 to 4 scale
Procedure: as §1
Control wells without virus were completed to determine the toxicity of compounds.

[3] = molecular target: T1, Yeast alpha-glucosidase (Saccharomyces cerevisiae, UniProt P53341); assay: Alpha-glucosidase inhibition assay, pH 7.4 (p-nitrophenol release); format: biochemical; settings: for inhibition at 1000 µM / inhibition at 100 µM: Table 5, read-out: α-Glucosidase % Inhibition; for inhibition at 1000 µM: at 1.0 mM
T1 construct: purchased Sigma
T1 sequence (P53341 whole entry): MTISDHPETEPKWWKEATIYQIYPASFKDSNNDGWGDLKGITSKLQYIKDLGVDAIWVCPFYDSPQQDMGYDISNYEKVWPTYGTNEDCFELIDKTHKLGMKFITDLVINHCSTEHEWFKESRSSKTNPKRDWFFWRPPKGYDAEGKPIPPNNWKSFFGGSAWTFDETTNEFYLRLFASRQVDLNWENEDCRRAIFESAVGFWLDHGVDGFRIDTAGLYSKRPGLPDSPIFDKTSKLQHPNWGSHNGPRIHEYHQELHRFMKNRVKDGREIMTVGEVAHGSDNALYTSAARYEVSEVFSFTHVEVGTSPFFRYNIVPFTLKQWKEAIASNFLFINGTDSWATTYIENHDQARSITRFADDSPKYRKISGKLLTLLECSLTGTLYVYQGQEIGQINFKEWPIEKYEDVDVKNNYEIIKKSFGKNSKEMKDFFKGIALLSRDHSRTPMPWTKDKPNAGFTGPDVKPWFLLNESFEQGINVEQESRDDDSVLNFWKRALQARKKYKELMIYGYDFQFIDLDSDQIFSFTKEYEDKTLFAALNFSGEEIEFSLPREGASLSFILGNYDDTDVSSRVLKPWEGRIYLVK
Procedure: (§2) Yeast alpha-glucosidase and almond beta-glucosidase activities were measured by a modification of the method of Evans, et al., Phytochemistry 22, 768-770 (1983). The modifications included 1) assay of activities at pH 7.4 in HEPES (N-2-hydroxyethylpiperazine-N′-2-ethanesulfonic acid) buffer, 2) measurement in 96 well microtiter plates and 3) inclusion of 10% DMSO in control and test samples. The release of p-nitrophenol from the substrate p-nitrophenylglycoside was measured spectrophotometrically in the presence and absence of test compound. Each assay included a known inhibitor of the enzyme as a standard. IC₅₀ values were determined for compounds which inhibited the enzymes more than 50% at a 1 millimolar concentration. To 100 µl 50 mM HEPES buffer, pH 7.4, in a microtiter plate, add 20 µl test compound in DMSO (DMSO alone in control), 40 µl (0.013 units) yeast alpha-glucosidase (Sigma) in HEPES buffer and pre-incubate at room temperature for 15 minutes. […] Absorption change was measured at 15 to 25 minutes (reaction was linear for at least 30 minutes). Each sample was tested in triplicate. IC₅₀ values were determined from the linear portion of the log concentration vs % inhibition curve obtained from a minimum of 3 points. Deoxynojirimycin was used as standard inhibitor.

[4] = tested on: almond beta-glucosidase; assay: Beta-glucosidase inhibition assay, pH 7.4 (p-nitrophenol release); format: biochemical; settings: for β-Glucosidase pH 7.4 % Inhibition: Table 5
Procedure: as §2, with “µl (0.136” for “µl (0.013”, “units) beta-glucosidase” for “units) yeast alpha-glucosidase”, “(reaction is” for “(reaction was”, “points. Castanospermine” for “points. Deoxynojirimycin”

[5] = tested on: almond beta-glucosidase; assay: Beta-glucosidase inhibition assay, pH 4.8 (p-nitrophenol release); format: biochemical; settings: for β-Glucosidase pH 4.8 % Inhibition: Table 5
Procedure: Yeast alpha-glucosidase and almond beta-glucosidase activities were measured by a modification of the method of Evans, et al., Phytochemistry 22, 768-770 (1983). The modifications included 1) assay of activities at pH 7.4 in HEPES (N-2-hydroxyethylpiperazine-N′-2-ethanesulfonic acid) buffer, 2) measurement in 96 well microtiter plates and 3) inclusion of 10% DMSO in control and test samples. The release of p-nitrophenol from the substrate p-nitrophenylglycoside was measured spectrophotometrically in the presence and absence of test compound. Each assay included a known inhibitor of the enzyme as a standard. IC₅₀ values were determined for compounds which inhibited the enzymes more than 50% at a 1 millimolar concentration. To 100 µl 50 mM sodium citrate buffer, pH 4.8, in a microtiter plate, add 15 µl test compound in DMSO (DMSO alone in control), 20 µl (.017 units) beta-glucosidase (Sigma) in citrate buffer and pre-incubate at room temperature for 15 minutes. Add 25 µl 2.50 mM p-nitrophenyl-beta-D-glucopyranside in citrate buffer, as substrate. Incubate at room temperature 20 minutes (reaction is linear for at least 30 minutes). Add 50 µl 0.4 M NaOH. Read absortion change at 405 nm in a Biotek EIA Autoreader. Each sample was tested in triplicate. IC₅₀ values were determined from the linear portion of the log concentration vs % inhibition curve obtained from a minimum of 3 points. Castanospermine was used as standard inhibitor.

Compound	inhibition at 1000 µM [3]	β-Glucosidase pH 7.4 % Inhibition ([4]; at 1.0 mM)	β-Glucosidase pH 4.8 % Inhibition ([5]; at 1.0 mM)	EC50 ([1]; Visna-maedi virus)	inhibition at 100 µM [3]	β-Glucosidase pH 7.4 % Inhibition ([4]; at 100 µM (***))	β-Glucosidase pH 4.8 % Inhibition ([5]; at 100 µM (***))	Antiviral Activity ([1]; 0.01 mM Concn.)	Antiviral Activity ([1]; 0.1 mM Concn.)	Toxicity ([2]; Table 4, 0.01 mM Concn.)	Toxicity ([2]; Table 4, 0.1 mM Concn.)	Toxicity ([2]; Table 4, 1.0 mM Concn.)	also measured
CC(=O)OCCN1C[C@H](OC(C)=O)[C@@H](OC(C)=O)[C@@H]1COC(C)=O [Example 3, 1,4-([2-Acetyloxyethyl]imino)-1,4-dideoxy-L-arabinitol, triacetate]	15%	5%	12%										inhibition at 1 µM ([1]; Visna-maedi virus, Concentration 0.001 mM): -46%; inhibition at 10 µM ([1]; Visna-maedi virus, Concentration 0.01 mM): -64%; inhibition at 100 µM ([1]; Visna-maedi virus, Concentration 0.1 mM): 72%; inhibition at 1000 µM ([1]; Visna-maedi virus, Concentration 1.0 mM): 90%; Toxicity ([2]; Concentration 0.001 mM): 0; Toxicity ([2]; Concentration 0.01 mM): 0; Toxicity ([2]; Concentration 0.1 mM): 0; Toxicity ([2]; Concentration 1.0 mM): 0
CCCCN1CC(OC(=O)CCC)C(OC(=O)CCC)C1COC(=O)CCC [Example 26, 1,4-(Butylimino)-1,4-dideoxy-L-arabinitol, tributyrate]				1000 µM	20%	1%***	1%***				0	2	
CN1CC(O)C(O)C1CO [Example 18, 1,4-(Methylimino)-1,4-dideoxy-L-arabinitol]				100 µM									IC50 ([3]; Table 3, pH 7.4, read-out: α-glucosidase IC₅₀): 46 µM; IC50 ([4]; Table 3, at pH 7.4, read-out: β-glucosidase IC₅₀): 23 µM; IC50 ([5]; Table 3, at pH 4.8, read-out: β-glucosidase IC₅₀): 36 µM

Further lines, with some results ahead:

inhibition at 1000 µM [3]	β-Glucosidase pH 7.4 % Inhibition ([4]; at 1.0 mM)	β-Glucosidase pH 4.8 % Inhibition ([5]; at 1.0 mM)	EC50 ([1]; Visna-maedi virus)	inhibition at 100 µM [3]	β-Glucosidase pH 7.4 % Inhibition ([4]; at 100 µM (***))	β-Glucosidase pH 4.8 % Inhibition ([5]; at 100 µM (***))	Compound	Antiviral Activity ([1]; 0.01 mM Concn.)	Antiviral Activity ([1]; 0.1 mM Concn.)	Toxicity ([2]; Table 4, 0.01 mM Concn.)	Toxicity ([2]; Table 4, 0.1 mM Concn.)	Toxicity ([2]; Table 4, 1.0 mM Concn.)	also measured
30%	6%	0%	1000 µM				CC(=O)OC[C@H]1[C@H](OC(C)=O)[C@@H](OC(C)=O)CN1C(=O)Cc1ccccc1 [Example 28, 1,4-(Phenylacetylimino)-1,4-dideoxy-L-arabinitol, triacetate]	A	A	0	0	1	Antiviral Activity ([1]; 1.0 mM Concn.): A
				41%	5%***	2%***	CCC(=O)OC[C@H]1[C@H](OC(=O)CC)[C@@H](OC(=O)CC)CN1C(=O)OCc1ccccc1 [Example 29, 1,4-(Benzyloxycarbonylimino)-1,4-dideoxy-L-arabinitol, tripropionate]	A	A	0	0		Antiviral Activity ([1]; 0.001 mM Concn.): A; Toxicity ([2]; Table 4, 0.001 mM Concn.): 0
18%	6%	5%	1000 µM				CC(=O)OC[C@H]1[C@H](OC(C)=O)[C@@H](OC(C)=O)CN1C(=O)OCc1ccccc1 [Example 20, 1,4-(Benzyloxycarbonylimino)-1,4-dideoxy-L-arabinitol, triacetate]				0	0	
